Results on seven compounds are retold here after patent US20250108038A1 (priority 2023, published 2025).

Several values for one entry are separate records, joined by “and”; a condition that tells them apart may be missing. Equal values may be shown once. Read-outs that look alike come from different tables or passages of the source.

By half-life is commonly meant how long it takes for the measured level to halve. Read a low half-life as fast loss. In general, inhibition refers to the drop in the measured response relative to a control, in per cent. By IC50 is commonly meant the midpoint of a concentration-inhibition curve. A higher IC50 goes with weaker potency in that assay.

Series [1] in a line: Stability in beagle dog plasma. The following applies: 2.0 μM.
Description: Pooled (N≥3) male SD rat, beagle dog and mixed gender human plasma with EDTA-K2 as anticoagulant were purchased from BioIVT (NY, USA) and stored in a −70° C. freezer before use.
Incubations were conducted in 96-well plate format. The time points defined for this study are 0, 5, 15, 30 and 60 minutes.
For positive controls, the rat plasma was spiked with enalapril, the dog plasma spiked with bisacodyl and the human plasma was spiked with propantheline. All spiked plasma sample plates were incubated in a water bath at 37° C. with shaking.
At end of each time point, samples were immediately quenched with three volume of cold quenching solution. All sample plates were mixed thoroughly by shaking for approximately 10 minutes and centrifuged at 3220×g for 15 minutes. Subsequently, 100 μL of supernatant was removed from each well, mixed with 100 μL water in a new 96-well plate and subjected to LC-MS/MS analysis.
Concentrations of test article, metabolite, and control compounds in the samples were analyzed by LC-MS/MS semi-quantitatively. […] The peak area ratios of analyte/internal standard were used to semi-quantitatively determine the concentrations.
The peak area ratios (PAR) of analyte/internal standard were used to semi-quantitatively determine the concentration of test article and control compounds, and calculate the percent remaining with the following equation:
The elimination rate (ke) was calculated from a log linear plot of % remaining versus time. The half-life was calculated using the following equation:
Another series can be described thus: in vitro. The following applies: beagle, dog, plasma.
The next series addresses T1, CYP1A2 (Homo sapiens, UniProt P05177).
T1 sequence (P05177 1-516): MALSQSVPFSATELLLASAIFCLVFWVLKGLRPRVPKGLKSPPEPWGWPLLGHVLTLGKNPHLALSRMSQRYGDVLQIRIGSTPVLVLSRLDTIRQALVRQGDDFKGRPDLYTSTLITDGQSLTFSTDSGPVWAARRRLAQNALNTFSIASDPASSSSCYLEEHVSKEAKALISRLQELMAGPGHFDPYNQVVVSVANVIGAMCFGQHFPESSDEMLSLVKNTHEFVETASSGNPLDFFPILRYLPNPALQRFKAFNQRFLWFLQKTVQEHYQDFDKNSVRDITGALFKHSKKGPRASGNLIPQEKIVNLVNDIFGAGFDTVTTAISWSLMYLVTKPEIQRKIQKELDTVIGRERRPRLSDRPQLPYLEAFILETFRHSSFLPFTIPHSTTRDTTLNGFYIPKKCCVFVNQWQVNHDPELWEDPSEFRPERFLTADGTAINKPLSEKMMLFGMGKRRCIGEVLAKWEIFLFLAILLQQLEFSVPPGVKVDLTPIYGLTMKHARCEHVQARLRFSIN
The series can be described thus: in vitro. Conditions: both, microsomes, pH 7.4.

Series [2] concerns the target T2, CYP2C19 (Homo sapiens, UniProt P33261). Description: in vitro. The following applies: both, pH 7.4.
For series [3], the target named is T2, CYP2C19. The series can be described thus: biochemical.
Series [4] has as its target T3, MATE1 (Homo sapiens, UniProt Q96FL8).
T3 sequence (Q96FL8 1-570): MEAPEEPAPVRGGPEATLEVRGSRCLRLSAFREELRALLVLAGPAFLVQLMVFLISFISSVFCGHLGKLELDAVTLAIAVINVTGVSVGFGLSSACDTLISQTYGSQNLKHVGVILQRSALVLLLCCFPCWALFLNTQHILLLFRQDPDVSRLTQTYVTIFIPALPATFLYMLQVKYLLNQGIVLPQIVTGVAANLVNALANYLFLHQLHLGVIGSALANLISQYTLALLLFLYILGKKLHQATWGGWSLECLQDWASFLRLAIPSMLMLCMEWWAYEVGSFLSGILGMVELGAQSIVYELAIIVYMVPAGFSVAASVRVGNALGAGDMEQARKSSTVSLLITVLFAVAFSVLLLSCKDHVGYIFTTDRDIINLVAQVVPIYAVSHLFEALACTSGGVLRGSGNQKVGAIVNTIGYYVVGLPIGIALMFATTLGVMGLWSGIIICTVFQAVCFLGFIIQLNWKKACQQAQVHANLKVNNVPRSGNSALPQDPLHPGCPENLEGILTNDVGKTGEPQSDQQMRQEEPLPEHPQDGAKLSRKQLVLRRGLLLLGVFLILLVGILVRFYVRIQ
The series can be described thus: in vitro.
Description: (§1) Uptake experiments were performed using HEK293 cells stably expressing the respective uptake transporters.
(§2) Cells were cultured at 37° C. in a humidified atmosphere containing 5% CO2 and were plated onto standard 96-well tissue culture plates.
(§3) Before the experiment, the medium was removed, and the cells were washed twice with 100 μL of pre-warmed (37° C.) assay buffer listed in Table 15. The cells were pre-incubated at 37° C. for 30 minutes in assay buffer containing the test article at appropriate concentrations (Table 16), appropriate solvents for solvent controls and the reference inhibitor for reference inhibitor wells. After the pre-incubation step solutions were removed. Uptake experiments were performed at 37° C. in 50 μL of assay buffer containing the probe substrate and the test article or solvent and controls.
(§4) After the experiment, cells were washed twice with 100 μL of appropriate cold buffer and lysed with 150 μL scintillation cocktail. Radiolabeled probe substrate transport was determined by liquid scintillation counting.
(§5) Uptake of the probe substrate in control cells provided background activity values for all data points.

Series [5] has as its target T4, MATE2-K (Homo sapiens, UniProt Q86VL8). The series can be described thus: in vitro.
Description: as §1, §2, §3, §4, §5
Series [6] concerns the target T3, MATE1.
Description: as §1, §2, §3, §4, §5
Series [7] deals with T4, MATE2-K.
Description: as §1, §2, §3, §4, §5
Another series deals with T5, CYP2C8 (Homo sapiens, UniProt P10632).
T5 sequence (P10632 1-490): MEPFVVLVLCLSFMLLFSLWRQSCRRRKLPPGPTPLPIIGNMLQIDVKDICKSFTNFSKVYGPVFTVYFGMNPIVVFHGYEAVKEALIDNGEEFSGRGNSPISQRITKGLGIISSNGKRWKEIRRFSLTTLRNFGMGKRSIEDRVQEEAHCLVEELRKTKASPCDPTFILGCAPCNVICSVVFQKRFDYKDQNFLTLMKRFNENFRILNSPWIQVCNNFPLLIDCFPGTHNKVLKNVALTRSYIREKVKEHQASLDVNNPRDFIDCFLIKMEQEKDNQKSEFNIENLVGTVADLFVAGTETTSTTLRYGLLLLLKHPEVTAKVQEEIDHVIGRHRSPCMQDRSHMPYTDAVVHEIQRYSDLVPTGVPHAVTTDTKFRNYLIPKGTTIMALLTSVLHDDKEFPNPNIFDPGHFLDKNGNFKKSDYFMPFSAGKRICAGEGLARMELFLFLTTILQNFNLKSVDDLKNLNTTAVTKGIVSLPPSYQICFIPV
Description: in vitro. Conditions: both, pH 7.4.

The target in the next series is CYP2D6 (Homo sapiens, UniProt P10635). Description: in vitro. Conditions: both, pH 7.4.
Another series concerns the target CYP2C9 (Homo sapiens, UniProt P11712). The series can be described thus: in vitro. The following applies: both, pH 7.4.

T4 sequence (Q86VL8 1-566 isoform Q86VL8-3): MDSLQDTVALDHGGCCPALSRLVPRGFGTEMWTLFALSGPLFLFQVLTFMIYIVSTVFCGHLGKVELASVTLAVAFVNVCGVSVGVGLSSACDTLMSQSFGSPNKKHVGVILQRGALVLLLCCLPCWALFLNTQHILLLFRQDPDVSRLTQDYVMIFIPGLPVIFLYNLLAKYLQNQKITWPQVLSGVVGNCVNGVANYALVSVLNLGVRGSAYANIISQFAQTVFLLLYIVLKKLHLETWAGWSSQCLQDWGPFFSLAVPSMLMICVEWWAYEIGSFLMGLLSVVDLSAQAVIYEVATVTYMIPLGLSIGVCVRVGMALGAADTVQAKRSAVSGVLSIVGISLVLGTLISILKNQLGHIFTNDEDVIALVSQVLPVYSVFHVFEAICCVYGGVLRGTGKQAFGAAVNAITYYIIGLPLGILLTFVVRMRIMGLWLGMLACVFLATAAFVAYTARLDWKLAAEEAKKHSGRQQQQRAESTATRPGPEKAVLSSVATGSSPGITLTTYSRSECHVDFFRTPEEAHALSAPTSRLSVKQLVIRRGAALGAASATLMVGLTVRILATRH
T2 sequence (P33261 whole entry): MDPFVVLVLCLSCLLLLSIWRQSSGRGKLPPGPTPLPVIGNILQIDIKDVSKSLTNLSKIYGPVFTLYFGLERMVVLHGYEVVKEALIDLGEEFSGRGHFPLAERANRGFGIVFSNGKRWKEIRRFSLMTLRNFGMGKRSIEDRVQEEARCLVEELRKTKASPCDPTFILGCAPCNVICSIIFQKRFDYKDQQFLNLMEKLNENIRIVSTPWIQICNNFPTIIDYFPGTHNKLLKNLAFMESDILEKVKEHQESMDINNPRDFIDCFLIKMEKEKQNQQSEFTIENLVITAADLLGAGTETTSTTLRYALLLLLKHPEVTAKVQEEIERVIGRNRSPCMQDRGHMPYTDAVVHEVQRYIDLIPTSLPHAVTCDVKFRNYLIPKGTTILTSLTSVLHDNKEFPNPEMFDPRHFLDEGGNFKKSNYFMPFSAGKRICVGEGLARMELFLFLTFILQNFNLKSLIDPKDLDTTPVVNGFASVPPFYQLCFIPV
Chain of CYP2C9 (P11712 whole entry): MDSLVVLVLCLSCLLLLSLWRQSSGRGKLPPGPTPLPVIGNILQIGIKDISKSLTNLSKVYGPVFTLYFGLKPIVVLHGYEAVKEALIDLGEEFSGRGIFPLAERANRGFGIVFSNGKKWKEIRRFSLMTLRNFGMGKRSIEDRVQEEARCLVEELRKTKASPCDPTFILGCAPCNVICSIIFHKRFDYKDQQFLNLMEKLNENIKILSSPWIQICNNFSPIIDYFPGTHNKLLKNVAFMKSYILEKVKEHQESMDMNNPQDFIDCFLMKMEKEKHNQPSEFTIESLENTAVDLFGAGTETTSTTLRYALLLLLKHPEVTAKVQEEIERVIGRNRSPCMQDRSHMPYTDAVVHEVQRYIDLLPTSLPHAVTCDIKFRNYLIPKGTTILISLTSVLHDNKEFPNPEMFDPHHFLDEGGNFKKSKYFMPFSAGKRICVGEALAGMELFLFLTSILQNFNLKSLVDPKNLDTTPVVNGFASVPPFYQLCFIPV
Chain of CYP2D6 (P10635 whole entry): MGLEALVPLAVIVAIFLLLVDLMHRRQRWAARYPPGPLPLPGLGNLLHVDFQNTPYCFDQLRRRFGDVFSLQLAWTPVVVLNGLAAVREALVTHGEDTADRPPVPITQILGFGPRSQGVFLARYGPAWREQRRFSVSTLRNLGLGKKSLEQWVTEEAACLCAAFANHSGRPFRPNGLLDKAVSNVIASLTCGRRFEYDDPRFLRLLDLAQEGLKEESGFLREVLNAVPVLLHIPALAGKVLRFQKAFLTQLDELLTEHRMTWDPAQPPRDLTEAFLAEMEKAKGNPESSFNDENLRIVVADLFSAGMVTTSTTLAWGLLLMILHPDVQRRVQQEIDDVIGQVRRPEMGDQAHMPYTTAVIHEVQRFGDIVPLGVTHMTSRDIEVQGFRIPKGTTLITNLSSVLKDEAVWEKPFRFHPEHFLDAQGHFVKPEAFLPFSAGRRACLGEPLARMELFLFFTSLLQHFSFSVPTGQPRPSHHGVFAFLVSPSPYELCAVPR

With `CC(=O)Oc1ccc(C(c2ccc(OC(C)=O)cc2)c2ccccn2)cc1` [Bisacodyl, reference compound], the “% Remaining” value in series [1] (0 min) is given as 100%; in series [1] (5 min), 45.9%; in series [1] (15 min), 8.79%; in series [1] (30 min) it was 0.34%; in series [1] (60 min) it was 0.00%. Besides, the “Aa/Ai Mean (N = 2)” value in series [1] (0 min) was 1.49; in series [1] (5 min), 0.68; in [1] (15 min), 0.13; in series [1] (30 min), 0.01; in [1] (60 min) it was 0.00. Moreover, the half-life at 2 μM in the series “in vitro” was determined as 3.6 min.

With `COCCCC/C(=N\OCCN)c1ccc(C(F)(F)F)cc1` [Fluvoxamine], at CYP1A2, the inhibition at 50 µM came to 101%.

With `COc1ccc2[nH]c([S+]([O-])Cc3ncc(C)c(OC)c3C)nc2c1` (stereo not shown) [Omeprazole], at CYP2C19 [2], the inhibition at 50 µM was determined as 89.9%. At CYP2C19 [3], this compound gave an IC50 of 7.36 µM.

Turning to `CCc1nc(N)nc(N)c1-c1ccc(Cl)cc1` [Pyrimethamine], the inhibition at 5 µM at MATE1 [4] is 102%; on MATE2-K [5], 95%. Moreover, the inhibition at 5 μM was determined as 101% at MATE1 [4] and 98% against MATE2-K [5]. Also, the inhibition at MATE1 [6] was 100%; at MATE1 [6] (5 µM), 100%; on MATE2-K [7], 101%; at MATE2-K [7] (5 µM), 101% and 102% and 100%.

As to `O=c1c(O)c(-c2ccc(O)c(O)c2)oc2cc(O)cc(O)c12` [Quercetin], at CYP2C8, the inhibition at 50 µM stood at 102%.

On to `C=C[C@H]1C[N@@]2CC[C@H]1C[C@@H]2[C@@H](O)c1ccnc2ccc(OC)cc12` [Quinidine], for which the inhibition at 5 µM at CYP2D6 was determined as 96.2%.

Turning to `Nc1ccc(S(=O)(=O)Nc2ccnn2-c2ccccc2)cc1` [Sulfaphenazole], the inhibition at 50 µM on CYP2C9 was determined as 98.7%.
